Columns and labels:
[1] = target: T1, TarH (TarGH nucleotide binding domain) (Staphylococcus aureus, UniProt Q2FJ01); assay: malachite green ATPase assay of purified TarGH (Michaelis-Menten); format: biochemical
T1 construct: gene tagH; full-length TarH (residues 1–264) in TarG2H2 heterotetramer; with TarG (A0A0H2XIF1)

[2] = target: T1, TarH (TarGH nucleotide binding domain); assay: cryo-EM structure at […] Å
[3] = target: T2, TarG (TarGH WTA transporter, transmembrane domain) (Staphylococcus aureus, UniProt A0A0H2XIF1); assay: cryo-EM structures ([…] Å with AMP-PNP; […] Å with ATPγS), MST; IC50 from malachite green ATPase assay of purified TarGH; format: biochemical
T2 construct: gene tagG; full-length TarG with N-terminal His tag, co-expressed with TarH (residues 1–264) as TarG2H2 heterotetramer; with TarH (Q2FJ01)
T2 sequence (A0A0H2XIF1 1-270): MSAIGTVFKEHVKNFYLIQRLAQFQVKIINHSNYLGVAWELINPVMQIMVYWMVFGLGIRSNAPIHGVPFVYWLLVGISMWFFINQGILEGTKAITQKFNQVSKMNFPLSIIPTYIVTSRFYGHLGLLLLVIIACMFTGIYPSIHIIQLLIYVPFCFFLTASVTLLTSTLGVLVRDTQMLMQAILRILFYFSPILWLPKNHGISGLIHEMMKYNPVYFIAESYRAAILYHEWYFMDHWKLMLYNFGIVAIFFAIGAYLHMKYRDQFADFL
T2 sequence (Q2FJ01 whole entry partner, the tested form may be a part): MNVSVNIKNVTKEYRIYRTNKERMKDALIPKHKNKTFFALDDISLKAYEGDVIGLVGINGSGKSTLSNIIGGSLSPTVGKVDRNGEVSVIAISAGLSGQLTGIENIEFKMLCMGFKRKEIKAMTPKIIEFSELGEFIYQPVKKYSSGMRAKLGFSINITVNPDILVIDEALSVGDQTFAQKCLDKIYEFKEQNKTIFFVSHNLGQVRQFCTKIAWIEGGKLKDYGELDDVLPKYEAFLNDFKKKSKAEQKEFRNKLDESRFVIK

T1 sequence (Q2FJ01 whole entry, the tested form may be a part): as the sequence (Q2FJ01 whole entry partner, the tested form may be a part) above
T1 sequence (A0A0H2XIF1 1-270 partner): as the sequence (A0A0H2XIF1 1-270) above

For `Nc1ncnc2c1ncn2[C@@H]1O[C@H](COP(=O)(O)OP(=O)(O)OP(=O)(O)O)[C@@H](O)[C@H]1O` [ATP], the “malachite green ATPase assay of purified TarGH (Michaelis-Menten)” value [1] was ~ 70 mol Pi/min mol protein.

With `Nc1ncnc2c1ncn2[C@@H]1O[C@H](CO[P@](=O)(O)O[P@](=O)(O)O[P@@](=O)(O)S)[C@@H](O)[C@H]1O` [ATPγS] the “cryo-EM structure at 2.3 Å” value [2] was “ATPγS is well resolved at the TarH dimer interface, forming characteristic interactions with the ABC motifs”.

Compound `Cc1c(CC(=O)N2CCC[C@H]2C(=O)O)c(=O)oc2c(C)c3occ(-c4ccc(Cl)cc4)c3cc12` [targocil-II] has an IC50 [3] of 6.5 ± 1.2 µM.

From paper PMC11971408, “Cryo-EM analyses unveil details of mechanism and targocil-II mediated inhibition of S. aureus WTA transporter TarGH” (Nature Communications, 2025)
